Measured values: ChEMBL document CHEMBL2074406, “Single amino acid substitutions in the transmembrane domains of breast cancer resistance protein (BCRP) alter cross resistance patterns in transfectants” (Int J Cancer, 2003)

Target: T1, Broad substrate specificity ATP-binding cassette transporter ABCG2 (Homo sapiens, UniProt Q9UNQ0)
T1 sequence (Q9UNQ0 whole entry): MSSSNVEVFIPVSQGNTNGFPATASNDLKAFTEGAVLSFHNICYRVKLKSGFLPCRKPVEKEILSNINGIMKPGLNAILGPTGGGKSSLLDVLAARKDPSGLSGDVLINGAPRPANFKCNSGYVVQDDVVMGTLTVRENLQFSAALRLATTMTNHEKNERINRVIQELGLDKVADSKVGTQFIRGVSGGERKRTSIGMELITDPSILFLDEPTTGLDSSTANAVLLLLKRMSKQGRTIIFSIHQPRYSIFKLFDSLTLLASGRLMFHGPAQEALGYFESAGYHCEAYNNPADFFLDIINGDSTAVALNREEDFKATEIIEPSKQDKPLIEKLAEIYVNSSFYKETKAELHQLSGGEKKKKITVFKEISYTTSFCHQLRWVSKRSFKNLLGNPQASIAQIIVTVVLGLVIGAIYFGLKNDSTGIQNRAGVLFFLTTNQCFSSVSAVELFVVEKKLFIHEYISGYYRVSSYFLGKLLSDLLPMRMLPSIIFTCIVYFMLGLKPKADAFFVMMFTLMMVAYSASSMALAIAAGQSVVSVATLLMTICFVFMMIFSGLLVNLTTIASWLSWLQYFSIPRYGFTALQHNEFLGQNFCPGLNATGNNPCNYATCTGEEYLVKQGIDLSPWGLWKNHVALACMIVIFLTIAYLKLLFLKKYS
Assay: TP_TRANSPORTER: drug resistance in BCRP-expressing PA317 cells
Format: functional, cell-based
Conditions: mouse

SMILES	Activity
CCc1c2c(nc3ccc(O)cc13)-c1cc3c(c(=O)n1C2)COC(=O)[C@]3(O)CC [7-ETHYL-10-HYDROXYCAMPTOTHECIN]	substrate []
C[C@]12CC[C@@H]3c4ccc(O)cc4CC[C@H]3[C@@H]1CCC2=O [ESTRONE]	inhibitor []
COc1ccc2c3c([nH]c2c1)[C@H](C=C(C)C)N1C(=O)[C@@H]2CCCN2C(=O)[C@@H]1C3 [FUMITREMORGIN]	inhibitor []
O=C1c2c(O)ccc(O)c2C(=O)c2c(NCCNCCO)ccc(NCCNCCO)c21 [MITOXANTRONE]	substrate []
